Laboratory results from patent US8129370B2, “Use of oxicam compounds” (Dritte PatentPortfolio Beteiligungsgesellschaft MBH & Co. KG, priority 2003, dated 2012).

How the values were obtained:
[1] = tested on: amyloid precursor protein (APP); conditions: cited from earlier work
Aβ42 = conditions: WO 01/78721 A1; cited from earlier work
plasma half-life = conditions: in vivo
COX-2 [2] = target: T1, COX-2 (Homo sapiens, UniProt P35354); test: inhibition of eicosanoid formation in LPS-stimulated Mono Mac 6-cells (COX-2); assay type: cell-based; conditions: FIG. 7
T1 construct: LPS-stimulated Mono Mac 6-cells (COX-2); endogenous in cells; host or cells: LPS-stimulated Mono Mac 6 cells
T1 sequence (P35354 18-604): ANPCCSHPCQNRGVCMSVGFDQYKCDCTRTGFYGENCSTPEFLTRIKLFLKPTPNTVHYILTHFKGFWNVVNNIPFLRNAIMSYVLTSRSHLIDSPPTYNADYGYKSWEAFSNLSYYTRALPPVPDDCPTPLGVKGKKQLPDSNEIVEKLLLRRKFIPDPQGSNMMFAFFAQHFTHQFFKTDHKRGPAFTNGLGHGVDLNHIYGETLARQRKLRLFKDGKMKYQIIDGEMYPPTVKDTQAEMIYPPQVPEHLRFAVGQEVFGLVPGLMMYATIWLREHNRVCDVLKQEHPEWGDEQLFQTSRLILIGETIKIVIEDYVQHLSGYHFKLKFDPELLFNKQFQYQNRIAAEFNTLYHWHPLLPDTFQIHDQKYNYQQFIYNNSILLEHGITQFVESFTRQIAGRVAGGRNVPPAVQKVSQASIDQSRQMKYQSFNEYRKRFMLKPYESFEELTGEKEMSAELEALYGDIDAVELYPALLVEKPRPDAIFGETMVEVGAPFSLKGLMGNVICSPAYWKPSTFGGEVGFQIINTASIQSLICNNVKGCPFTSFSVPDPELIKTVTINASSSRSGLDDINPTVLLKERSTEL

[3] = Pruss et al. 1989; cited from earlier work
COX-2 [4] = target: T1, COX-2; test: inhibition of COX-2 (isozyme of the eicosanoid metabolism); assay type: biochemical
[5] = cited from earlier work
COX-1 [6] = target: T2, COX-1 (Homo sapiens, UniProt P23219); test: inhibition of eicosanoid formation in HEL cells (COX-1); assay type: cell-based; design: eicosanoid formation in HEL cells (COX-1); endogenous in cells; host or cells: HEL cells; conditions: FIG. 7
COX-1 [7] = target: T2, COX-1; test: inhibition of COX-1 (isozyme of the eicosanoid metabolism); assay type: biochemical; design: eicosanoid formation in HEL cells (COX-1); endogenous in cells; host or cells: HEL cells

T2 sequence (P23219 24-599): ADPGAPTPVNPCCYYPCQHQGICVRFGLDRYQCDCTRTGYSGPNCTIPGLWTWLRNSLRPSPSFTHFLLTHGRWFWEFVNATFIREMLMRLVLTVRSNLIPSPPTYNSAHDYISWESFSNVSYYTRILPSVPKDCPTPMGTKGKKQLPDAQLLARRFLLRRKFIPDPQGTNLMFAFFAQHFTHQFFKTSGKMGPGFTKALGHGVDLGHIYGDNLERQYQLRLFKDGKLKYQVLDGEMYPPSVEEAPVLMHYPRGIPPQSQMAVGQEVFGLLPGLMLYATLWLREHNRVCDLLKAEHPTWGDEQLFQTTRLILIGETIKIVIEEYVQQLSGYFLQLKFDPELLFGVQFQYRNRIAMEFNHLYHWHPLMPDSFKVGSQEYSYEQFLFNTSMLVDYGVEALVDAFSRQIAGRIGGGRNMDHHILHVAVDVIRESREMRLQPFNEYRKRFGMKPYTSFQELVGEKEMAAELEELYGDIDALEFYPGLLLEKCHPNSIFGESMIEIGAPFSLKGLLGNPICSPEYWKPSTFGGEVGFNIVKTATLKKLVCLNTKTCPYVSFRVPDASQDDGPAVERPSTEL

CC(C)Cc1ccc(C(C)C(=O)O)cc1 (stereo not shown) [Ibuprofen]
portion of the amyloid β-42 peptide [1]: lowered
portion of the non-amyloidogenic soluble APP [1]: increased

Cc1cc(NC(=O)C2=C(O)c3ccccc3S(=O)(=O)N2C)no1 [isoxicam]
influence on the expression of Aβ42 (Aβ42): do not influence the expression of Aβ42 and even increase the expression thereof, respectively

CN1C(C(=O)Nc2ccccn2)=C(O)c2sc(Cl)cc2S1(=O)=O [lornoxicam]
plasma half-life (plasma half-life): short
inhibition of the eicosanoid formation (COX-2 [2]): inhibition
crossing the blood-brain barrier [3]: not capable of crossing the blood-brain barrier
inhibition of COX-2 (COX-2 [4]): inhibits
severe undesired events reported ([5]; in one million of prescriptions): less than 10
gastro-intestinal and other tolerance ([5]; in vivo): good
side-effects found during observation of usage ([5]; in vivo): below 0.05%
inhibition of the eicosanoid formation (COX-1 [6]): inhibition
inhibition of COX-1 (COX-1 [7]): inhibits

CN1C(C(=O)Nc2ccccn2)=C(O)c2ccccc2S1(=O)=O [peroxicam]
influence on the expression of Aβ42 (Aβ42): do not influence the expression of Aβ42 and even increase the expression thereof, respectively
